Data taken from paper PMC8002452, “Molecular Basis of AmpC β-Lactamase Induction by Avibactam in Pseudomonas aeruginosa: PBP Occupancy, Live Cell Binding Dynamics and Impact on Resistant Clinical Isolates Harboring PDC-X Variants” (International Journal of Molecular Sciences, 2021).

Legend:
PBP4 [1] = target: T1, PBP4 (Pseudomonas aeruginosa, UniProt Q9HZG1); experiment: Isolated PBP-containing membranes time-course binding assay; parameters: species or system P. aeruginosa PAO1; details: isolated PAO1 membranes, 4 µg/mL avibactam, 15-60 min; read-out: PBP4 total fraction bound
Description: (§1) Figure 2 Time-course of intact cells and isolated PBP-binding assay. P. aeruginosa PAO1 cultures (a) and isolated PBP-containing membrane preparations (b) were incubated for 15, 30 and 60 min in the presence of 4 µg/mL avibactam (AVI). After isolating PBP-containing membranes, preparations were labeled with 25 µM bocillin FL. The graphs represent the PBP fraction unbound relative to each time control over time. The mean PBP fraction unbound values from at least three independent experiments ± standard deviations are shown.
(§2) In parallel to the aforementioned assay, we performed analogous experiments in which isolated PBP-containing membrane preparations instead of intact cells were pre-exposed to avibactam. Briefly, membrane preparations containing PBPs were obtained by following previously described protocols and were incubated for 15, 30 and 60 min at 37 °C in the presence of 4 µg/mL avibactam and were afterwards labeled with bocillin FL (25 μM). Determination of the PBP fraction unbound was performed as described in the above section.

PBP5/6 [2] = target: T2, PBP5/6 (Pseudomonas aeruginosa, UniProt G3XD74); experiment: as above; parameters: species or system P. aeruginosa PAO1; details: isolated PAO1 membranes, 4 µg/mL avibactam, 15-60 min; read-out: PBP5/6 total fraction bound
Description: as §1, §2

[3] = test system: ampC mRNA in 110-G8 (AmpC DelG229–E247; PDC-223, CAZ/AVI-resistant ST175 clinical isolate); experiment: qRT-PCR quantification of AmpC induction; assay type: cell-based, P. aeruginosa; details: IPM 8, FOX 64, AVI 16 µg/mL, relative to strain basal t=0
Description: (§3) Samples were taken at 0, 30 and 180 min. Total RNA was extracted with the RNeasy Mini Kit (Qiagen, Hilden, Germany) and treated with TURBO DNase (Thermo Fisher Scientific, Waltham, MA, USA) to remove contaminating DNA. Samples were afterwards normalized to 50 ng/µL.
(§4) Normalized samples were then used for one-step reverse transcription and real-time PCR amplification using the QuantiTect SYBR green qRT-PCR kit (Qiagen, Hilden, Germany) in a CFX Connect Real-Time PCR System (Bio-Rad, Hercules, California, USA). Previously described primer pairs ACrnaF/ACrnaR and rpsL-1/rpsL-2 were used for the amplification of ampC and housekeeping gene rpsL, respectively. The mean values of relative mRNA expression (2^−ΔΔCt) obtained from at least two independent biological replicates and duplicate technical replicates were considered.

[4] = test system: ampC mRNA in 109-E9 (CAZ/AVI-sensitive ST175 clinical isolate); experiment: qRT-PCR quantification of AmpC induction; assay type: cell-based, P. aeruginosa; details: IPM 8, FOX 64, AVI 16 µg/mL, relative to strain basal t=0
Description: as §3, §4

[5] = test system: ampC mRNA in 101-E5 (CAZ/AVI-sensitive ST175 clinical isolate); experiment: qRT-PCR quantification of AmpC induction; assay type: cell-based, P. aeruginosa; details: IPM 8, FOX 64, AVI 16 µg/mL, relative to strain basal t=0
Description: as §3, §4

[6] = test system: ampC mRNA in 103-H8 (AmpC E247K; PDC-221, CAZ/AVI-resistant ST175 clinical isolate); experiment: qRT-PCR quantification of AmpC induction; assay type: cell-based, P. aeruginosa; details: IPM 8, FOX 64, AVI 16 µg/mL, relative to strain basal t=0
Description: as §3, §4

[7] = test system: ampC mRNA in wild-type PAO1; experiment: qRT-PCR quantification of AmpC induction; assay type: cell-based, P. aeruginosa; details: IPM 8, FOX 64, AVI 16 µg/mL, relative to strain basal t=0
Description: as §3, §4

PBP4 [8] = target: T1, PBP4; experiment: PBP-binding affinity (IC50), bocillin FL, isolated membranes; parameters: species or system P. aeruginosa PAO1; details: PAO1 membranes 0.5 mg/mL, 30 min, 25 µM bocillin FL; read-out: Mean IC50 ± SD, PBP 4 (converted)
Description: (§5) PBP-binding affinity was determined using previously described methods. Briefly, P. aeruginosa PAO1 cultures grown to the midexponential phase (7.6 log10 CFU/mL) were incubated in CAMHB at 37 °C and 180 rpm, washed and centrifuged (3220× g for 10 min at 4 °C). Bacterial pellets were washed in 30 mL of PBS buffer (pH 7.5), resuspended in 10 mL of PBS and sonicated at 40% amplitude for three 2 min bursts (while immersed in an ice bath) and centrifuged at 3220× g for 15 min at 4 °C. PBP-containing membranes were isolated by ultracentrifugation at 150,000× g for 30 min at 4 °C. Total protein concentrations were measured through the Bradford method.
(§6) Subsequently, the fluorescent penicillin bocillin FL was added to a 25 μM final concentration. Labeled PBPs were denatured and separated through 4–15% SDS–polyacrylamide gel electrophoresis. Labeled PBPs were visualized using a Typhoon FLA 9500 biomolecular imager (GE Healthcare Bio-Sciences AB, Uppsala, Sweden) (excitation at 488 nm and emission at 530 nm), and binding was determined from at least three independent experiments using ImageQuant TL software v8.1.0.0 (GE Healthcare Bio-Sciences AB, Uppsala, Sweden).

PBP5/6 [9] = target: T2, PBP5/6; experiment: as above; parameters: species or system P. aeruginosa PAO1; details: PAO1 membranes 0.5 mg/mL, 30 min, 25 µM bocillin FL; read-out: Mean IC50 ± SD, PBP 5/6 (converted)
Description: as §5, §6

PBP1b = PBP1b (Pseudomonas aeruginosa, UniProt G3XD31); experiment: as above; parameters: species or system P. aeruginosa PAO1; details: PAO1 membranes 0.5 mg/mL, 30 min, 25 µM bocillin FL; read-out: Mean IC50 ± SD, PBP 1b (converted)
Description: as §5, §6

PBP2 = target: T3, PBP2 (Pseudomonas aeruginosa, UniProt Q9X6V3); experiment: as above; parameters: species or system P. aeruginosa PAO1; details: PAO1 membranes 0.5 mg/mL, 30 min, 25 µM bocillin FL; read-out: Mean IC50 ± SD, PBP 2 (converted)
T3 construct: PBP-containing membranes were isolated by ultracentrifugation; endogenous in cells; host or cells: P. aeruginosa PAO1 wild type (membrane preparations or intact cells)
Description: as §5, §6

PBP1a = target: T4, PBP1a (Pseudomonas aeruginosa, UniProt Q07806); experiment: as above; parameters: species or system P. aeruginosa PAO1; details: PAO1 membranes 0.5 mg/mL, 30 min, 25 µM bocillin FL
T4 construct: PBP-containing membranes were isolated by ultracentrifugation; endogenous in cells; host or cells: P. aeruginosa PAO1 wild type (membrane preparations or intact cells)
Description: as §5, §6

T4 sequence (Q07806 whole entry): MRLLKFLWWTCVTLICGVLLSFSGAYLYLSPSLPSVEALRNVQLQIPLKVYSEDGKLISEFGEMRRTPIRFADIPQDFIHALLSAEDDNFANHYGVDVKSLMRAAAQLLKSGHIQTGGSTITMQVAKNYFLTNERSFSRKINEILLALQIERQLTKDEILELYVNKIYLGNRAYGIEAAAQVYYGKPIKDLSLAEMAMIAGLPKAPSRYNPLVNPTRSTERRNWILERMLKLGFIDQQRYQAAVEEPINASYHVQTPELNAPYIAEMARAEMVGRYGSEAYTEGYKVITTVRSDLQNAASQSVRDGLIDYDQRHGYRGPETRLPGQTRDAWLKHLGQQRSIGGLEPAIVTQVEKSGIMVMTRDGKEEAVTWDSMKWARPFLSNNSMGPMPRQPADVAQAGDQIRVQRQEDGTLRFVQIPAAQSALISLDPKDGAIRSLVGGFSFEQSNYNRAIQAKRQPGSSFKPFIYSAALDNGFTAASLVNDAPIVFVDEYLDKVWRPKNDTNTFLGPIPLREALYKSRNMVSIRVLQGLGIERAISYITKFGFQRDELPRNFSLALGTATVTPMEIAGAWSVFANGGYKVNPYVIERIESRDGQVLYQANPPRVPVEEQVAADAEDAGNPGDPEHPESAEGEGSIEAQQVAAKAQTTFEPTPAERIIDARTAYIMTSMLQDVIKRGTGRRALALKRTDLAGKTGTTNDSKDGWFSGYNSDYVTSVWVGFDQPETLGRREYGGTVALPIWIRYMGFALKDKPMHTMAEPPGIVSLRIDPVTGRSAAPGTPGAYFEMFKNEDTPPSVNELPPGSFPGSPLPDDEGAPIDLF
T2 sequence (G3XD74 entry or part of it): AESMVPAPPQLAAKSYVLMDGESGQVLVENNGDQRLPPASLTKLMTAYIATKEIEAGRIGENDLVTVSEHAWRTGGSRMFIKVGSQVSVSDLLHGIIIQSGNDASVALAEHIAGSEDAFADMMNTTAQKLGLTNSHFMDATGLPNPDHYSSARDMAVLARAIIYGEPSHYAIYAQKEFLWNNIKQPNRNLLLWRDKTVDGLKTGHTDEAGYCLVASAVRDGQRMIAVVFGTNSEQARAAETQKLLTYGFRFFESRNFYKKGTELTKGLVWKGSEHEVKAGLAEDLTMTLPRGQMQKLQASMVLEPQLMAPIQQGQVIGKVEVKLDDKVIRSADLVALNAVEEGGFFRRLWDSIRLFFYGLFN
T1 sequence (Q9HZG1 entry or part of it): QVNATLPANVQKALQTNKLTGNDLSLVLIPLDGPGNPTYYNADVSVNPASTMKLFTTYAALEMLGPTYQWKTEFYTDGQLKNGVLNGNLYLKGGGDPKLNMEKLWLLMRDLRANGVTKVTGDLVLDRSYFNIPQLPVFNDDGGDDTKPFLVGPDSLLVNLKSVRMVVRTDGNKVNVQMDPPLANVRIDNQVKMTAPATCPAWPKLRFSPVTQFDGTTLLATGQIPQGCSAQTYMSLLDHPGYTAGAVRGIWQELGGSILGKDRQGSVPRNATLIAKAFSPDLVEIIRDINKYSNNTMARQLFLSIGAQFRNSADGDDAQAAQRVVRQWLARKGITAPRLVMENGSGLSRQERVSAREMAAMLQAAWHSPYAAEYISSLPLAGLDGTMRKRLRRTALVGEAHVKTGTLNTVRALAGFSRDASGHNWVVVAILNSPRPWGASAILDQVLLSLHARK
Sequence of PBP1b (G3XD31 entry or part of it): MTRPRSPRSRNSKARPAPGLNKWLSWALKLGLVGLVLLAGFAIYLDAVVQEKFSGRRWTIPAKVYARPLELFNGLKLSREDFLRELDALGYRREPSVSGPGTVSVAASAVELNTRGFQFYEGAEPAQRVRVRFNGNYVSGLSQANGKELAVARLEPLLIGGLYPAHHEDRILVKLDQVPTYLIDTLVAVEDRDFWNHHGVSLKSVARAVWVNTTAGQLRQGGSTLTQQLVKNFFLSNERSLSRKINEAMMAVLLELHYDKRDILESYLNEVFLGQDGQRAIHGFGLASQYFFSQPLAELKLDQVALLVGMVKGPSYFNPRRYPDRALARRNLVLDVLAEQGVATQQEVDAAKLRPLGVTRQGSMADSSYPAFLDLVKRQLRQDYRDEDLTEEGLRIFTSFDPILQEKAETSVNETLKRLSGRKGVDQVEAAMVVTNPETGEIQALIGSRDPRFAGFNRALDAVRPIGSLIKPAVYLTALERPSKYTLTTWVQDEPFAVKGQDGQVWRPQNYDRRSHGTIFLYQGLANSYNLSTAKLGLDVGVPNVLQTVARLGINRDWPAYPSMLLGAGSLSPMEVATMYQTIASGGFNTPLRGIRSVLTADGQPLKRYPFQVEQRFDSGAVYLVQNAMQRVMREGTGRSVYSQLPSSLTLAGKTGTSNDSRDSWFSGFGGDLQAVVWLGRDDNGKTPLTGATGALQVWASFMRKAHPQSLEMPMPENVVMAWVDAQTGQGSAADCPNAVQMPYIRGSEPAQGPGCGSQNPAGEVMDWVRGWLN
T3 sequence (Q9X6V3 entry or part of it): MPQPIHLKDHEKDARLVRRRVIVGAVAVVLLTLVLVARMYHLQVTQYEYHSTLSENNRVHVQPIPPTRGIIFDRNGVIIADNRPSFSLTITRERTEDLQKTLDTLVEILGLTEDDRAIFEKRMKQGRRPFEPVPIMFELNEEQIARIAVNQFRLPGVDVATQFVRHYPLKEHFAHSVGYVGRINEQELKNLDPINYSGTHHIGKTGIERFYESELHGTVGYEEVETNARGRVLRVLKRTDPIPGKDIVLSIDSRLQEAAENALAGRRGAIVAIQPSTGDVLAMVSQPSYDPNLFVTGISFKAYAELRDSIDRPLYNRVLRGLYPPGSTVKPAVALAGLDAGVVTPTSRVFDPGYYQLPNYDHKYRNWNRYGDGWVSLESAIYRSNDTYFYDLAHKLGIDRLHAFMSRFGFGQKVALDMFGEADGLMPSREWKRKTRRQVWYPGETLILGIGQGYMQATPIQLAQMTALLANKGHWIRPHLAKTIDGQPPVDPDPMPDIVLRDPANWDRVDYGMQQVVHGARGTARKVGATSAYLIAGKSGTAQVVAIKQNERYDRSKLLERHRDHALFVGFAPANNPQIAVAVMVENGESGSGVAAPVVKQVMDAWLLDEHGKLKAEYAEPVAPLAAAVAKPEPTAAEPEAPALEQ

Structure (SMILES): NC(=O)[C@@H]1CC[C@@H]2CN1C(=O)N2OS(=O)(=O)O [Avibactam]
- inhibition at 4 µg/mL (PBP4 [1]): ≤ 68%
- inhibition at 4 µg/mL (PBP5/6 [2]): ≤ 82%
- Relative ampC expression ([3]; 110-G8, 0 min): 3.3
- Relative ampC expression ([3]; 110-G8, 30 min): 2.6
- Relative ampC expression ([3]; 110-G8, 180 min): 8.7
- Relative ampC expression ([4]; 109-E9, 0 min): 0.9
- Relative ampC expression ([4]; 109-E9, 30 min): 1.5
- Relative ampC expression ([4]; 109-E9, 180 min): 6.2
- Relative ampC expression ([5]; 101-E5, 0 min): 1.2
- Relative ampC expression ([5]; 101-E5, 30 min): 0.5
- Relative ampC expression ([5]; 101-E5, 180 min): 3.1
- Relative ampC expression ([6]; 103-H8, 0 min): 1.4
- Relative ampC expression ([6]; 103-H8, 30 min): 2.1
- Relative ampC expression ([6]; 103-H8, 180 min): 6.9
- Relative ampC expression ([7]; PAO1, 0 min): 1.1
- Relative ampC expression ([7]; PAO1, 30 min): 5.8
- Relative ampC expression ([7]; PAO1, 180 min): 60.6 ± 25.2
- Relative ampC expression ([7]; PAO1, 180 min, listed as AVI): 60.6
- IC50 (PBP4 [8]): 11.7 µM
- IC50 (PBP5/6 [9]): 8.29 µM
- IC50 (PBP1b): 13.6 µM
- IC50 (PBP2): 15.8 µM
- Mean IC50 ± SD, PBP 1a (PBP1a): no PBP1a and 3 binding was detected
- IC50 (PBP1a; read-out: Mean IC50 ± SD, PBP 1a (converted)): > 121 µM
